The species named for data set [1] is Homo sapiens. The experiment in a line: Selectivity of human adenosine A2A receptor over human adenosine A1 receptor.
The target of data set [2] is Adenosine receptor A2a (Homo sapiens, UniProt P29274). The experiment in a line: Binding affinity to human adenosine A2A receptor.
Data set [3] has as its system Rattus norvegicus. The experiment in a line: Inhibition of haloperidol-induced catalepsy in rat at 1 mg/kg, po after 1 hr. The data set is classed as functional.
Data set [4] deals with Rattus norvegicus. The experiment in a line: Inhibition of haloperidol-induced catalepsy in rat at 1 mg/kg, po after 4 hrs. Type of data set: functional.
A short description of data set [5]: Cmax in rat at 3 mg/kg, po. As to conditions: in vivo. The arrangement: dose 3 mg/kg, route oral. Type of data set: ADME, organism-based.
Data set [6] can be described thus: Ratio of drug level in brain to plasma in rat. The data set is classed as ADME.
A short description of data set [7]: Tmax in rat at 3 mg/kg, po. The data set is classed as ADME, organism-based. The arrangement: dose 3 mg/kg, route oral. As to conditions: in vivo.
Data set [8] in a line: Oral bioavailability in rat at 3 mg/kg. The data set is classed as ADME, organism-based. To be noted: in vivo.
The nature of data set [9]: Volume of distribution at steady state in rat at 1 mg/kg, iv. Type of data set: ADME, organism-based. Also noted: dose 1 mg/kg, route intravenous. As to conditions: in vivo, read-out: Vdss.
Data set [10] in a line: AUC in rat at 3 mg/kg, po. The data set is classed as ADME, organism-based. As to conditions: plasma. The arrangement: dose 3 mg/kg, route oral.
A short description of data set [11]: Half life in rat at 1 mg/kg, iv. Type of data set: ADME, organism-based. Also noted: dose 1 mg/kg, route intravenous. To be noted: in vivo.
Data set [12] can be described thus: Clearance in rat at 1 mg/kg, iv. Also noted: dose 1 mg/kg, route intravenous. Type of data set: ADME, organism-based. To be noted: in vivo.
The species named for data set [13] is Homo sapiens. The experiment in a line: Selectivity of human adenosine A2A receptor over human adenosine A2B receptor.
The target of data set [14] is Adenosine receptor A2a (Rattus norvegicus) (UniProt P30543). The experiment in a line: Antagonist activity at rat adenosine A2A receptor assessed as CGS 21680-induced inhibition of adenylate cyclase activity by cell-based assay. Type of data set: functional.
Sequence of Adenosine receptor A2a (Rattus norvegicus) (P30543 whole entry): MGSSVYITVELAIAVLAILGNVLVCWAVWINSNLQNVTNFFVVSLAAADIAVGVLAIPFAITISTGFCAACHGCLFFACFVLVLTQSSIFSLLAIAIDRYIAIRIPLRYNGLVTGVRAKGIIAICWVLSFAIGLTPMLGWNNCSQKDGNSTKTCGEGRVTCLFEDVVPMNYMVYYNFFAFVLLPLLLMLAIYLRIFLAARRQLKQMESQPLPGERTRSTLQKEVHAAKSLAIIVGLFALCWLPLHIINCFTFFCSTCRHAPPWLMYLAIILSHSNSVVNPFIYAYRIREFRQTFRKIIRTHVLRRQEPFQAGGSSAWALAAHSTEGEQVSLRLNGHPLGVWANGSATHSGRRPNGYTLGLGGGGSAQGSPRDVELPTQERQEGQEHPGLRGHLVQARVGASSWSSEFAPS
Data set [15] is filed under the species Homo sapiens. The experiment in a line: Selectivity of human adenosine A2A receptor over human adenosine A3 receptor.
For another data set, the target named is T1, Adenosine receptor A2b (Homo sapiens, UniProt P29275).
T1 sequence (P29275 whole entry): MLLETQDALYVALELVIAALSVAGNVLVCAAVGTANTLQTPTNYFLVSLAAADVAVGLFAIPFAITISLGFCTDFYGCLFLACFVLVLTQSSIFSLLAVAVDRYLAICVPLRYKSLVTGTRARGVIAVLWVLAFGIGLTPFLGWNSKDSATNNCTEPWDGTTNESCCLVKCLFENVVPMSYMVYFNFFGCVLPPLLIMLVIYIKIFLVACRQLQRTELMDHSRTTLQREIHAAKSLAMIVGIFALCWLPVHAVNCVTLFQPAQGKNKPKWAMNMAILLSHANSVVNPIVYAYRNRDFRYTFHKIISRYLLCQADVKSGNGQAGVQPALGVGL
The experiment in a line: Binding affinity to human adenosine A2B receptor.

Data set [16] can be described thus: Solubility in water at pH 5.1. Type of data set: physicochemical.
Data set [17] deals with Adenosine receptor A2a (Rattus norvegicus, UniProt P30543). The experiment in a line: Binding affinity to rat adenosine A2A receptor.
Sequence of Adenosine receptor A2a (Rattus norvegicus, UniProt P30543) (P30543 whole entry): as the sequence (P30543 whole entry) above
The target of a further data set is T2, Adenosine receptor A1 (Homo sapiens, UniProt P30542).
T2 sequence (P30542 whole entry): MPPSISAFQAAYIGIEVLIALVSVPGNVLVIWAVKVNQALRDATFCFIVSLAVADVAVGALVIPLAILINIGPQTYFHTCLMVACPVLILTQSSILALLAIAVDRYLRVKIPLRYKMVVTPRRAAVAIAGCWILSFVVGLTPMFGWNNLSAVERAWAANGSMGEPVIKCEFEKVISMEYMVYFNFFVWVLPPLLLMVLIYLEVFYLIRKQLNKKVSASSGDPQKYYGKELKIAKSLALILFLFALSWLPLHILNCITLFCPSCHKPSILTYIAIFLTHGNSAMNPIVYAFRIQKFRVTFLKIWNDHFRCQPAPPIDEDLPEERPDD
The experiment in a line: Binding affinity to human adenosine A1 receptor.

Data set [18] has as its system Rattus norvegicus. The experiment in a line: Reversal of haloperidol-induced catalepsy in orally dosed rat after 1 hr. Type of data set: functional. As to conditions: po, read-out: MED.
The nature of data set [19]: Solubility in 0.01 N Hcl. To be noted: buffer. The data set is classed as physicochemical.
The next data set addresses T3, Adenosine receptor A3 (Homo sapiens, UniProt P0DMS8).
T3 sequence (P0DMS8 whole entry): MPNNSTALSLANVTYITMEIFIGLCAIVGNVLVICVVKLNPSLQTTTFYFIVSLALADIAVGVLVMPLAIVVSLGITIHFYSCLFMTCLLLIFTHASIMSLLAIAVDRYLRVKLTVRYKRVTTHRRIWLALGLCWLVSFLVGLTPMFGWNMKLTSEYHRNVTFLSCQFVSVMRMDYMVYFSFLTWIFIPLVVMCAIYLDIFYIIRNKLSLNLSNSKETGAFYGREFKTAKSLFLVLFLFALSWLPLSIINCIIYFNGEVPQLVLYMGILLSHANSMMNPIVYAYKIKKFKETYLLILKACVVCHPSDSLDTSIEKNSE
The experiment in a line: Binding affinity to human adenosine A3 receptor.

Converted amounts (≈) assume the structure as drawn. Some results are limits rather than exact numbers.

Sequence of Adenosine receptor A2a (Homo sapiens, UniProt P29274) (P29274 whole entry): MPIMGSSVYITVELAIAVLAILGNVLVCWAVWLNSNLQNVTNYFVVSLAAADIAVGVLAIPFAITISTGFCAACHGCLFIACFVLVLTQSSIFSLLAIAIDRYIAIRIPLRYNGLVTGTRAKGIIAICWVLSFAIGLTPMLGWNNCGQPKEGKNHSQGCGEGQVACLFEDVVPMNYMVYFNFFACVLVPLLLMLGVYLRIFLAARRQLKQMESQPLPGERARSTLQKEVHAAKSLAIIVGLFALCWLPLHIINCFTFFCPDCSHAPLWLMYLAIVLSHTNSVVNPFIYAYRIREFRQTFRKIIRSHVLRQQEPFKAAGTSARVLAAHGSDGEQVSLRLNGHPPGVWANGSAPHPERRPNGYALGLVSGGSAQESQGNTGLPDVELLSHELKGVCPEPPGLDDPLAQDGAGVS

Consider `Nc1nc2c(cnn2CCN2CCN(c3ccc(F)cc3F)CC2)c2nc(-c3ccco3)nn12`, for which, in the data set listed under Homo sapiens [1], the Ratio Ki was above 1600. This molecule also had a Ki on Adenosine receptor A2a [2] of 0.6 nM. Also, the inhibition in vivo at 1 mg/kg is 75% with Rattus norvegicus [3] and 80% in the data set with Rattus norvegicus [4].
In the case of `Nc1nc2c(cnn2CCN2CCN(c3ccc(F)c(F)c3)CC2)c2nc(-c3ccco3)nn12`, the Ratio Ki in the data set listed under Homo sapiens [1] worked out at 169. On Adenosine receptor A2a [2], the Ki turned out to be 1.4 nM. In the data set with Rattus norvegicus [3], this molecule gave an inhibition in vivo at 1 mg/kg of 45%.
Regarding `Nc1nc2c(cnn2CCN2CCN(c3ccc(OCCOC4CC4)cc3)CC2)c2nc(-c3ccco3)nn12`, the Ratio Ki in the data set listed under Homo sapiens [1] is 930. In addition, on Adenosine receptor A2a [2], the Ki worked out at 0.6 nM. Moreover, the results for the inhibition in vivo at 1 mg/kg with Rattus norvegicus [3] and in the data set on Rattus norvegicus [4] were 59% and 30%, respectively.
As to `CC(=O)COc1ccc(N2CCN(CCn3ncc4c3nc(N)n3nc(-c5ccco5)nc43)CC2)cc1`, in the data set filed under Homo sapiens [1], the Ratio Ki came to 427. This molecule gave a Ki at Adenosine receptor A2a [2] of 0.8 nM. Also, the inhibition in vivo at 1 mg/kg with Rattus norvegicus [3] amounted to 15%; with Rattus norvegicus [4], 10%.
`Nc1nc2c(cnn2CCN2CCN(c3ccc(O)cc3)CC2)c2nc(-c3ccco3)nn12`: the Ratio Ki in the data set listed under Homo sapiens [1] is 186. In addition, at Adenosine receptor A2a [2], the Ki was 1.3 nM. This molecule also came in with an inhibition in vivo at 1 mg/kg with Rattus norvegicus [3] of 0%.
For the molecule `COC(C)COc1ccc(N2CCN(CCn3ncc4c3nc(N)n3nc(-c5ccco5)nc43)CC2)cc1` (racemic), the Ratio Ki in the data set filed under Homo sapiens [1] was 539. On Adenosine receptor A2a [2], this molecule returned a Ki of 1.6 nM. In addition, the inhibition in vivo at 1 mg/kg in the data set with Rattus norvegicus [3] is 55%; in the data set with Rattus norvegicus [4], 20%.
The like results for `Nc1nc2c(cnn2CCN2CCN(c3ccc(OCCO)cc3)CC2)c2nc(-c3ccco3)nn12` were, in that order, 1520, 0.6 nM, 15% and 25%.
On to `CCOc1ccc(N2CCN(CCn3ncc4c3nc(N)n3nc(-c5ccco5)nc43)CC2)cc1`, for which the Ratio Ki in the data set filed under Homo sapiens [1] was found to be 848. The molecule also came in with a Ki on Adenosine receptor A2a [2] of 1.4 nM. The inhibition in vivo at 1 mg/kg in the data set with Rattus norvegicus [3] worked out at 27%.
Take `COCCOc1ccc(N2CCN(CCn3ncc4c3nc(N)n3nc(-c5ccco5)nc43)CC2)cc1.Cl`: in data set [5], the highest level (Cmax) was 762 nM. Also, in data set [6], the Kp is 1. For the same molecule, the Tmax in data set [7] turned out to be 15 min. In data set [8], this molecule yielded a bioavailability of 57%. The Vd in data set [9] came out at 2.6 L/kg. Moreover, the AUC in data set [10] amounted to 1.56 µM·h. Further, the half-life in data set [11] was 126 min. Moreover, in data set [12], the clearance came out at 37 mL/min/kg.
For the molecule `Nc1nc2c(cnn2CCN2CCN(c3c(F)cc(F)cc3F)CC2)c2nc(-c3ccco3)nn12`, in the data set listed under Homo sapiens [1], the Ratio Ki came out at 319. On Adenosine receptor A2a [2], this molecule registered a Ki of 1.1 nM. Further, the figures for the inhibition in vivo at 1 mg/kg with Rattus norvegicus [3] and in the data set with Rattus norvegicus [4] were 65% and 75%, respectively.
For `COCCOc1ccc(N2CCN(CCn3ncc4c3nc(N)n3nc(-c5ccco5)nc43)CC2)cc1`, the Activity in the data set filed under Homo sapiens [13] and in the data set filed under Homo sapiens [15] was above 1000 in each case. In addition, in data set [14], the Kb came to 0.7 nM.
For `Nc1nc2c(cnn2CCN2CCN(c3ccccc3)CC2)c2nc(-c3ccco3)nn12`, the Ratio Ki in the data set filed under Homo sapiens [1] stood at 343. Further, at Adenosine receptor A2a [2], the Ki came to 1.6 nM. Further, the inhibition in vivo at 1 mg/kg in the data set on Rattus norvegicus [3] stood at 52%; in the data set on Rattus norvegicus [4], 0%.
In the case of `Nc1nc2c(cnn2CCN2CCN(c3ccc(F)c(F)c3F)CC2)c2nc(-c3ccco3)nn12`, the Ratio Ki in the data set filed under Homo sapiens [1] was found to be 1500. The same molecule returned a Ki at Adenosine receptor A2a [2] of 0.6 nM. The inhibition in vivo at 1 mg/kg with Rattus norvegicus [3] is 65%; with Rattus norvegicus [4] it was 40%.
`N#Cc1ccc(N2CCN(CCn3ncc4c3nc(N)n3nc(-c5ccco5)nc43)CC2)cc1`: the Ratio Ki in the data set filed under Homo sapiens [1] came to 571. The molecule further gave a Ki on Adenosine receptor A2a [2] of 2.1 nM. This molecule gave an inhibition in vivo at 1 mg/kg with Rattus norvegicus [3] of 0%.
In the case of `COCCCOc1ccc(N2CCN(CCn3ncc4c3nc(N)n3nc(-c5ccco5)nc43)CC2)cc1`, in the data set filed under Homo sapiens [1], the Ratio Ki was found to be 1160. Further, the Ki on Adenosine receptor A2a [2] came out at 0.6 nM. Further, the values for the inhibition in vivo at 1 mg/kg in the data set on Rattus norvegicus [3] and in the data set with Rattus norvegicus [4] were 8% and 2%, respectively.
In the case of `Nc1nc2c(cnn2CCN2CCN(c3ccc(F)cc3)CC2)c2nc(-c3ccco3)nn12`, in the data set filed under Homo sapiens [1], the Ratio Ki came out at 101. For the same molecule, affinity on Adenosine receptor A2a [2] was put at a Ki of 1 nM. In addition, the inhibition in vivo at 1 mg/kg in the data set on Rattus norvegicus [3] is 8%.
For the molecule `COCCOc1ccc(N2CCN(CCn3ncc4c3nc(N)n3nc(-c5ccco5)nc43)CC2)cc1` [PRELADENANT], the Ki on Adenosine receptor A2b is above 1700 nM; on Adenosine receptor A2a [17] it was 2.5 nM; at Adenosine receptor A1 it was above 1000 nM; at Adenosine receptor A3, above 1000 nM. The inhibition in vivo at 1 mg/kg in the data set on Rattus norvegicus [3] was found to be 77%; in the data set on Rattus norvegicus [4], 70%. For the same molecule, the values for the solubility in [16] and in data set [19] were 0.2 µM (≈ 0.101 µg/mL) and 2 mM (≈ 1010 µg/mL), respectively. The minimal effective dose in the data set on Rattus norvegicus [18] was 0.3 mg/kg.
Turning to `C[S+]([O-])COc1ccc(N2CCN(CCn3ncc4c3nc(N)n3nc(-c5ccco5)nc43)CC2)cc1` (stereo unspecified), the Ratio Ki in the data set filed under Homo sapiens [1] is 523. The Ki at Adenosine receptor A2a [2] worked out at 2.2 nM. In addition, the values for the inhibition in vivo at 1 mg/kg in the data set on Rattus norvegicus [3] and with Rattus norvegicus [4] were 30% and 5%, respectively.
In the case of `Nc1nc2c(cnn2CCN2CCN(c3ccccc3F)CC2)c2nc(-c3ccco3)nn12`, in the data set listed under Homo sapiens [1], the Ratio Ki was 894. The molecule further returned an inhibition constant Ki at Adenosine receptor A2a [2] of 0.6 nM. Also, the inhibition in vivo at 1 mg/kg in the data set with Rattus norvegicus [3] came to 20%; with Rattus norvegicus [4] it was 25%.
The like results for `COCCOc1ccc(N2CCN(CCn3ncc4c3nc(N)n3nc(-c5ccco5)nc43)CC2)c(F)c1` were, in that order, 1740, 0.4 nM, 60% and 70%.
For `Nc1nc2c(cnn2CCN2CCN(c3ccc(Cl)cc3)CC2)c2nc(-c3ccco3)nn12`, the Ratio Ki in the data set listed under Homo sapiens [1] is 1350. The affinity on Adenosine receptor A2a [2] corresponds to a Ki of 0.5 nM. The same molecule showed an inhibition in vivo at 1 mg/kg in the data set on Rattus norvegicus [3] of 11%.

The values above are taken from ChEMBL document CHEMBL1139101, “Potent, selective, and orally active adenosine A2A receptor antagonists: arylpiperazine derivatives of pyrazolo[4,3-e]-1,2,4-triazolo[1,5-c]pyrimidines” (Bioorg Med Chem Lett, 2007).
